Patent publication US20250199015A1, “CYCLIN-DEPENDENT KINASE 2 INHIBITORS FOR MEDICAL TREATMENT” (INCYCLIX BIO, LLC, priority 2022, published 2025)
Entries after “also recorded” stand apart in the source; their conditions may differ. Read-outs that look alike come from different tables or passages of the source.

Tests used:
γ-H2AX in H526 cells = assay: γ-H2AX flow cytometry; assay type: cell-based, human
Experimental: (§1) The H526 human lung carcinoma cell line was grown in RPMI-1640/1× Glutamax/10% fetal bovine serum and was plated at 200,000 cells/well in Corning 6 cm tissue culture treated plates. Cells were incubated at 37° C. for 24 hours prior to addition of the first treatment. […] Cells were treated to 24 or 48 hours post-initial treatment, with 10 μM EdU added 1 hour prior to collection. Cells were collected and fixed in 1% paraformaldehyde. Cells were incubated with pacific blue azide dye as described by Thermo Scientific. Cells were then incubated with antibody against γ-H2AX at a ratio of 1:50 before incubation with FarRed dye and RNase. Cells were analyzed on a BD Celesta and data compiled using FloJo and GraphPad.
as §1, with “24” for “24 or 48”, “added at” for “added 1”, “hour 23 (FIG. 28A).” for “hour prior to collection.”, “Scientific. […]” for “Scientific. Cells were then incubated with antibody against γ-H2AX at a ratio of 1:50 before incubation with FarRed dye and RNase.”

COV318 cells = assay: CellTiter Glo cell proliferation assay; assay type: cell-based, human; settings: CCNE1 amplified, six days
Experimental: (§2) Plates were returned to the incubator for six additional days. On day six post dosing, plates were removed and treated with CellTiter Glo reagent following manufacturer's specifications. Plates were incubated 45 minutes at room temperature and run on Biotek luminometer with 1 sec/well detection. Results were converted to Microsoft Excel and transferred to Graphpad Prism for analysis. […] These cell types are distinguished by either gained of cyclin E1 expression or activation (Kuramochi) or intrinsic amplification of cyclin E1 (OVCAR-3, COV318).

[1] = test system: Hs68 normal foreskin fibroblast cells; assay: Cell cycle by EdU flow cytometry, normal fibroblasts; assay type: cell-based, human; settings: 300 nM, 24 hours, alone or in combination with cisplatin
Experimental: The Hs68 normal foreskin fibroblast cell line was grown in DMEM-high glucose/1× Glutamax/10% fetal bovine serum and was plated at 30,000 cells/well in Corning 6 well tissue culture treated plates. Cells were incubated at 37° C. for 24 hours prior to addition of the first treatment. […] Cells were treated to 24 hours post-initial treatment, with 10 μM EdU added at hour 23. Cells were collected and fixed in 1% paraformaldehyde. Cells were incubated with pacific blue azide dye as described by Thermo Scientific. Cells were then incubated with antibody against γ-H2AX at a ratio of 1:50 before incubation with FarRed dye and RNase. Cells were analyzed on a BD Celesta and data compiled using FloJo and GraphPad. Cell cycle profiles were evaluated following treatment via Flow Cytometry using FlowJo (v10.0) software.

[2] = Mouse hollow fiber assay, animal weight; assay type: in vivo, mice; settings: 75, 100, 150 mg/kg twice daily
Experimental: The mouse hollow fiber assay was conducted using three tumor cell lines, OVCAR-3 (ovarian), MKN-1 (gastric), and HCC-1569 (breast), 1e7 OVCAR-3, 5e6 MKN-1, and 1e7 HCC-1569 cells were loaded into Hollow Fibers, placed in cell culture dishes containing RPMI-1640 with 20% FCS and 1% penicillin/streptomycin, and were equilibrated in an incubator at 37 C, 5% CO2 overnight. On Day 0, three fibers were implanted in two different compartments: subcutaneous and intraperitoneal of twenty-four female NMRI nude mice ages 4-5 weeks. […] Female NMRI nude mice were implanted both subcutaneously and intraperitoneally with HCC-1569, MKN1, and OVCAR3 tumor cell-loaded Hollow Fibers on Day 0. The number of animals alive on Day 0 (implantation) and on Day 16 (necropsy) in each group is shown in parentheses in the legend.

SKOV3 cells = assay: CellTiter Glo cell proliferation assay; assay type: cell-based; settings: lacking cyclin E amplification
Experimental: as §2

PA-1 cells = assay: CellTiter Glo cell proliferation assay; assay type: cell-based; settings: lacking cyclin E amplification
Experimental: as §2

[3] = Nonclinical pharmacokinetics (IV and PO); settings: in vivo
Experimental: Nonclinical PK studies were conducted for single dose of Compound I in rats, mice, and dogs, and for repeated doses of Compound I in rats and dogs. […] The relationship between dose level and systemic exposure was generally similar in male and female animals.

[4] = Respiratory safety pharmacology study; assay type: in vivo, rats; settings: any dose level
Description: Safety pharmacology studies described more fully below included a functional observational battery (FOB) testing in a 28-day repeat-dose toxicity study in rats, electrocardiogram (ECG) evaluations in a 28-day repeat-dose toxicity study in dogs, and a single-dose respiratory safety pharmacology study in rats.

[5] = test system: BALB/c-3T3 mouse fibroblasts; assay: In vitro 3T3 NRU phototoxicity test; assay type: cell-based; settings: UVA 2.5 J/cm^2 vs dark, Neutral Red
Experimental: BALB/c-3T3 mouse fibroblasts (ATCC) were seeded in 96-well plates at 15,000 cells per well, and grown for 24 hr in DMEM supplemented with 10% FBS, 100 U/mL penicillin, and 100 mg/L streptomycin at 37° C., humidified with 5% CO2.
All test articles were solubilized and serially diluted in DMSO, with the exception of histidine, which was solubilized and diluted in HBSS. All DMSO stocks were diluted in HBSS at the final testing concentrations. The final concentration of DMSO for all test articles was 1%. At the start of the assay, the growth medium was removed from the plates and replaced with test article dilutions. Six replicates were used for each concentration and two plates were prepared for each test article. The cells were incubated in the dark at 37° C., humidified with 5% CO2 with test articles for 1 hr. After the 1 hr incubation period, one plate of each test article was exposed to UVA light, 2.5 J/cm^2 over 18 min which is sufficient to induce a phototoxic response, while the second plate was incubated in the dark at room temperature for the same period of time. At the end of this incubation period, both plates were washed with PBS and fresh medium was added to each well. The plates were incubated at 37° C., humidified with 5% CO2 overnight. […] Cellular Neutral Red was measured by its absorbance at 540 nm.

In the case of NS(=O)(=O)c1ccc(Nc2ncc3cc4n(c3n2)C2(CCCCC2)C(=O)NN4)cc1 [Compound I], the “γ-H2AX signal, combination with cisplatin” value (γ-H2AX in H526 cells; 300 nM Compound I + 300 nM cisplatin) was “roughly double the signal”, the “γ-H2AX signal, Compound I alone” value (γ-H2AX in H526 cells; 30 to 1000 nM, 24 or 48 hours) was “increased yH2AX starting at 100 nM” and the “cell viability compared with palbociclib” value (COV318 cells) was “potently decreases cell viability”. The cell cycle changes [1] was “Few cell cycle changes were observed”, the animal weight [2] was “No animal weight changes were observed” and the “inhibition compared with palbociclib” value (SKOV3 cells) was “comparable to palbociclib alone”. The “inhibition compared with palbociclib” value (PA-1 cells) was “comparable to palbociclib alone”, the half-life ([3]; dog, dogs) was ≤ 360 min and the Tmax ([3]; dog, iv, dogs, read-out: Tmax after IV dosing) was ≤ 15 min. For the same compound, the Tmax ([3]; dog, po, dogs, read-out: Tmax after PO dosing) was 72 to 102 min, the Tmax ([3]; mouse, iv, mice, read-out: Tmax after IV dosing) was ≤ 15 min and the Tmax ([3]; mouse, po, mice, read-out: Tmax after PO dosing) was 15 to 240 min. For the same compound, the Tmax ([3]; rat, iv, rats, read-out: Tmax after IV dosing) was ≤ 15 min, the Tmax ([3]; rat, po, rats, read-out: Tmax after PO dosing) was 15 to 30 min and the respiratory function [4] was “did not affect; also recorded: not affected”. The phototoxicity [5] was “negative for causing phototoxicity”.
